# In patent US6703415B2, “Inhibitors of matrix metallaproteinases” (Wayne State University, priority 2000, dated 2004):
# Like-named read-outs stand apart in the source and are kept apart here.
# Tests used:
# MMP-1 = biological target: T1, MMP-1 (Homo sapiens, UniProt P03956); assay: Kinetic analyses, MMP-1; format: biochemical; conditions: NI = not inhibiting even at 130-330 μM
# T1 sequence (P03956 100-469): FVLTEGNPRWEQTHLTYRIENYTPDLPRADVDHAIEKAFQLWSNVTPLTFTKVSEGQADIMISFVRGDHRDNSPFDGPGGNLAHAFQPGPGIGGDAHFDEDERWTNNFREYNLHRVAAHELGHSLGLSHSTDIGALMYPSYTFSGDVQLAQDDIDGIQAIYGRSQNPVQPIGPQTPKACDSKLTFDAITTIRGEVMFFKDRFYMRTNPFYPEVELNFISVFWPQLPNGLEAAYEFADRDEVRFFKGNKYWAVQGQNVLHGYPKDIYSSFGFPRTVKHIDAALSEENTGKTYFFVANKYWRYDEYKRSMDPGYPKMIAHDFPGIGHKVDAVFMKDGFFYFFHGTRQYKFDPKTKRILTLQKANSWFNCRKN
# Procedure: The progress curves were nonlinear least squares fitted to Equation 1 (Muller-Steffner, H. M., Malver, O., Hosie, L., Oppenheimer, N. J., and Schuber, F. J. Biol. Chem. 1992, 267, 9606-9611.):
# Analysis for linear competitive inhibition was performed in the following manner. […] The fluorescence versus time traces were fitted by linear regression analysis using FeliX™. The initial rates were fitted to Equation 5 (Segel, I. H. in: Enzyme Kinetics, Wiley Inc., New York, 1975, pp. 104.):
# The following buffers were used in experiments with enzymes: Buffer C (50 mM HEPES at pH 7.5, 150 mM NaCl, 5 mM CaCl2, 0.02% Brij-35); buffer R (50 mM HEPES at pH 7.5, 150 mM NaCl, 5 mM CaCl2, 0.01% Brij-35, and 1% v/v Me2SO) and buffer D (50 mM Tris at pH 7.5, 150 mM NaCl, 5 mM CaCl2, and 0.02% Brij-35).
# MMP-9 [1] = biological target: T2, MMP-9 (Homo sapiens, UniProt P14780); assay: biochemical
# T2 sequence (P14780 107-707 limits assumed): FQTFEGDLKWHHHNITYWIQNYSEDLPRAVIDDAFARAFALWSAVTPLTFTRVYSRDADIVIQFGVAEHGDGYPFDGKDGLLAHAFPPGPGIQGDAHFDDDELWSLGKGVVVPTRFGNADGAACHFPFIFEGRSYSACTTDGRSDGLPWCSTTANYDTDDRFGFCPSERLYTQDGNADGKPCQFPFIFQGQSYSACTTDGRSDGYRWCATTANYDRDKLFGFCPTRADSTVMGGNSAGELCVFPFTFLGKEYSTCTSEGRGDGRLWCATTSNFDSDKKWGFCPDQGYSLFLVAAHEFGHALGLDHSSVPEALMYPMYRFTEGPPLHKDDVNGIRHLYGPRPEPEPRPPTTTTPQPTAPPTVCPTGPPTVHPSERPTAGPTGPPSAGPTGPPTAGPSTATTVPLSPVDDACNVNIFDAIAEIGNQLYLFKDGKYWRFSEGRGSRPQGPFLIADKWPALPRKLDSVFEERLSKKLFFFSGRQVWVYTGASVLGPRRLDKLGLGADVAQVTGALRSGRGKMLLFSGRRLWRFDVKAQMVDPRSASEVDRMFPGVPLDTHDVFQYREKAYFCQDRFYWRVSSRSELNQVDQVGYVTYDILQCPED
# MMP-7 = biological target: T3, MMP-7 (Homo sapiens, UniProt P09237); assay: Fluorescence enzymatic activity assay / kinetic analyses, MMP-7; format: biochemical; conditions: NI = not inhibiting even at 130-330 μM
# T3 sequence (P09237 95-267): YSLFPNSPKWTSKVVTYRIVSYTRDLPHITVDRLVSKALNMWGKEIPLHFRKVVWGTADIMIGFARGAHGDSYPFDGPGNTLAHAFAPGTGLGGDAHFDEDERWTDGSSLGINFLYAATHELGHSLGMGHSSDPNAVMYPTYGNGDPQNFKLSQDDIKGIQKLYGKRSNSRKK
# Procedure: The enzymatic activity of MMP-2, MMP-9, and MMP-7 was monitored with the fluorescence quenched substrate MOCAcPLGLA2pr(Dnp)-AR-NH2. Fluorescence was measured with a Photon Technology International (PTI) spectrofluorometer interfaced to a Pentium computer, equipped with the RatioMaster™ and FeliX™ hardware and software, respectively. The cuvette compartment was thermostated at 25.0° C. […] Fluorescence measurements were taken every 4 s. Less than 10% hydrolysis of the fluorogenic substrate was monitored, as described by Knight.
# MMP-2 [2] = biological target: T4, MMP-2 (Homo sapiens, UniProt P08253); assay: biochemical
# T4 sequence (P08253 110-660): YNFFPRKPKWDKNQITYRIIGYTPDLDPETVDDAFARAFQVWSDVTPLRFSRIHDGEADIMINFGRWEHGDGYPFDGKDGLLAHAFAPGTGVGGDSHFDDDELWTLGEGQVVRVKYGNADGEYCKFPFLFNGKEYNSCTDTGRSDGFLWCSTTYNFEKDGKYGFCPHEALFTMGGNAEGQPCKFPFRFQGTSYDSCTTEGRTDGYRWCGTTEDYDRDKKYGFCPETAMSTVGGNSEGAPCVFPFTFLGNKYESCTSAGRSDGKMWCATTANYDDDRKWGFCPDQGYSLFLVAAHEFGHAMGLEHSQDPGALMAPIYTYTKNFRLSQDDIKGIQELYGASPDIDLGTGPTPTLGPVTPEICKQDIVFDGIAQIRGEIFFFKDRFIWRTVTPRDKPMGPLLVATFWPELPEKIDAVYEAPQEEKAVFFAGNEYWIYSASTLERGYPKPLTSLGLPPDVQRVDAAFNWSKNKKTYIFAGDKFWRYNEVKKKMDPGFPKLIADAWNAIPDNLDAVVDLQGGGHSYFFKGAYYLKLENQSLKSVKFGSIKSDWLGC
# MMP-3 = biological target: T5, MMP-3 (Homo sapiens, UniProt P08254); assay: Fluorescence enzymatic activity assay / kinetic analyses, stromelysin 1 (MMP-3); format: biochemical; conditions: NI = not inhibiting even at 130-330 μM
# T5 construct: gift of Dr. Paul Cannon, Center for Bone and Joint Research, Palo Alto, Calif
# T5 sequence (P08254 100-477): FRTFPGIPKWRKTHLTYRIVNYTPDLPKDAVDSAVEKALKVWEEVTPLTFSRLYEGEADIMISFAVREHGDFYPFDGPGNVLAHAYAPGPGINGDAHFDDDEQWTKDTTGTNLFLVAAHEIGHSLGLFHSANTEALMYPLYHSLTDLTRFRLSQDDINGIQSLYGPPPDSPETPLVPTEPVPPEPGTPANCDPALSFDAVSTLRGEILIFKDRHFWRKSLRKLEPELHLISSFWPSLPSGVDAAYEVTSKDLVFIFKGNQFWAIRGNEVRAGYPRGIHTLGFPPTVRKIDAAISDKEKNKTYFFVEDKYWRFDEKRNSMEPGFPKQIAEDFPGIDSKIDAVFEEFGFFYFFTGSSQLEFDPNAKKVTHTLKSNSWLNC
# MMP-2 [3] = biological target: T4, MMP-2; conditions: high-affinity site for TIMPs, reported earlier (Olson et al. 1997); cited from earlier work
# MMP-9 [4] = biological target: T2, MMP-9; conditions: high-affinity site for TIMPs, reported earlier (Olson et al. 1997); cited from earlier work
Compound,Ki (MMP-1),Ki (MMP-9 [1]),Ki (MMP-7),Ki (MMP-2 [2]),Ki (MMP-3),melting point,Ki (MMP-2 [2]; Ki),Ki (MMP-2 [3]),Ki (MMP-9 [4])
"O=S(=O)(CCC1CS1)c1ccc(Oc2ccccc2)cc1 (stereo not shown) [Compound 2, 2-(4-Phenoxyphenylsulfonyl)ethylthiirane]",> 130 µM,44 ± 5 µM,> 130 µM,4.7 ± 0.7 µM,> 130 µM,99 to 101 °C,–,–,–
"O=S(=O)(CCCC1CS1)c1ccc(Oc2ccccc2)cc1 (stereo not shown) [Compound 3, 3-(4-Phenoxyphenylsulfonyl)propylthiirane]",> 130 µM,181 ± 41 µM,> 130 µM,4.3 ± 0.7 µM,> 130 µM,75 to 76 °C,–,–,–
"O=S(=O)(CC1CO1)c1ccc(Oc2ccccc2)cc1 (stereo not shown) [Compound 4, (4-Phenoxyphenylsulfonyl)methyloxirane]",> 130 µM,186 ± 11 µM,> 130 µM,–,> 130 µM,50 to 51 °C,25 ± 2 µM,–,–
"O=S(=O)(CCC1CO1)c1ccc(Oc2ccccc2)cc1 (stereo not shown) [Compound 5, 2-(4-Phenoxyphenylsulfonyl)ethyloxirane]",> 130 µM,102 ± 2 µM,> 130 µM,–,> 130 µM,75 to 77 °C,5.1 ± 0.5 µM,–,–
"O=S(=O)(CCCC1CO1)c1ccc(Oc2ccccc2)cc1 (stereo not shown) [Compound 6, 3-(4-Phenoxyphenylsulfonyl)propyloxirane]",> 130 µM,75 ± 6 µM,> 130 µM,–,> 130 µM,–,10.7 ± 0.6 µM,–,–
TIMP-1: endogenous cellular protein inhibitor of MMPs (tissue inhibitor for matrix metalloproteinases),–,–,–,–,–,–,–,0.029 ± 0.005 µM,0.024 ± 0.004 µM
